From US20250162986A1, “Compounds and compositions for neurodegenerative diseases” (Universidade Nova de Lisboa, priority 2022, published 2025)
Structures can show the parent of a compound that is named as a salt.

What was measured:
Type in all cases: cell-based
[1] = system: N9 mouse microglia cell line; assay: LPS-induced TNF-α release in microglia cells (ELISA); details: for activity at 5 µM: Mus musculus, Microglia, read-out: TNFα release (Fold-change relative to LPS); for release of TNF-α (FIG. 1): 100 nM, 2, 4 and 6 hours pre-incubation; for attenuation of TNFα release at lower concentrations: at and below 100 nanomolar (data not shown)
Description: (§1) The “N9” murine microglia cell line was cultured in EMEM (Eagle Minimum Essential Media) supplemented with 10% (v/v) FBS, […] L-glutamine, 1% (v/v) NEAA and maintained at 37° C., 5% (v/v) CO2. Experiments were performed on 24-well plates. Compounds were incubated in cells for the indicated amount of time (2, 4 or 6 hours) before the addition of the indicated inflammatory stimuli (Lipopolysaccharide (LPS) or TNFα:IFNγ).
The experiment was conducted in vitro using N9 mouse microglia cell line. Phenolic metabolites or derived-thereof were pre-incubated for 6 hours at 5 micromolar with microglia cells in cell media. Afterwards cells were washed and incubated with lipopolysaccharides for 24 hours. At the end of this period cell media was collected and the presence of TNF-α analyzed using ELISA, thus showing the results as shown in Table 1.
In an embodiment compounds resorcinol-sulfate and phloroglucinol-sulfate were pre-incubated at 100 nanomolar for 2, 4, 6 hours with the cells in the cell media. Afterwards cells were washed and incubated with lipopolysaccharides for 24 hours. At the end of this period cell media was collected and the presence of TNF-α analyzed using ELISA, thus showing the results as substantially depicted in FIG. 1.

[2] = system: N9 mouse microglia cell line; assay: LPS-induced production of multiple cytokines in microglia cells (flow cytometry, LEGENDplex); details: 100 nM, 6 hours pre-incubation, then 24 hours lipopolysaccharides
Description: as §1
(§2) The experiment was conducted in vitro using N9 mouse microglia cell line. Phenolic metabolites were pre-incubated for 6 hours in the cell media at the indicated concentration. Afterwards cells were washed and incubated with lipopolysaccharides for 24 hours. At the end of this period cell media was collected and the presence of various cytokines analyzed using flow cytometry (LEGENDplex™ Mouse Macrophage/Microglia Panel), thus showing the results as substantially depicted in FIG. 2.

[3] = system: LUHMES cells (human dopaminergic cell line); assay: Cell viability and ATP levels after MPP+ oxidative insult; details: 24 hours pre-treatment at 5 μM, then 24 hours MPP+; for ATP levels (FIG. 5B): luciferase; for cell viability (metabolic capacity) (FIG. 5A): resazurin
Description: The LUHMES cells (human dopaminergic cell line) were cultured in advanced DMEM-F12 ([…]) at 37° C. with 5% (v/v) CO2. Experiments were performed in 24 well plates. Compounds were incubated for 24 hours before addition of Parkinson inducing toxin MPP+ was added to cells.
The experiment was conducted in vitro using “LUHMES”, human dopaminergic cell line at 37° C. with 5% CO2. Phenolic metabolites were incubated for 24 hours at 5 μM. After this period cells were washed and incubated (or not) with MPP+ ([…]) for 24 hours in order to produce the oxidative insult, that mimics the dopaminergic lesions found in several neurodegenerative diseases, namely in Parkinson's Disease brain. Afterwards cell medium was replaced with new medium including the cell metabolic dyes: resazurin for 2 hours or luciferase for 30 min. Colour development was measured by fluorescence and luminescence respectively, in a Synergy (Biotek) plate reader, thus showing the results as substantially depicted in FIG. 5.

[4] = system: N9 mouse microglia cell line; assay: TNF-α and IFNγ-induced production of multiple cytokines in microglia cells (flow cytometry, LEGENDplex); details: 100 nM, 6 hours pre-incubation, then 24 hours TNF-α 10 nM plus IFNγ 1 nM
Description: as §1
as §2, with “in the regular cell media” for “in the cell media”, “incubated with TNF-α 10 nM plus IFNγ 1 nM for 24” for “incubated with lipopolysaccharides for 24”, “in FIG. 3.” for “in FIG. 2.”

[5] = 5 micromolar, 6 hours pre-incubation, then 24 hours lipopolysaccharides, ELISA
[6] = then 24 hours lipopolysaccharides

O=S(=O)(O)Oc1ccc(CO)c(O)c1O [2,3-dihydroxy-4-(hydroxymethyl)phenyl hydrogen sulfate]
activity at 5 µM [1, 5]: 48 ± 7%

Cc1ccc(OS(=O)(=O)O)c(O)c1O [2,3-dihydroxy-4-methylphenyl hydrogen sulfate]
activity at 5 µM [1, 5]: 45 ± 4%

COc1cccc(OS(=O)(=O)O)c1O [2-hydroxy-3-methoxyphenyl hydrogen sulfate]
activity at 5 µM [1, 5]: 65 ± 11%

COc1c(O)cccc1OS(=O)(=O)O [3-hydroxy-2-methoxyphenyl hydrogen sulfate]
activity at 5 µM [1, 5]: 65 ± 8%

COc1cc(O)cc(OS(=O)(=O)O)c1 [3-hydroxy-5-methoxyphenyl hydrogen sulfate]
activity at 5 µM [1, 5]: 57 ± 6%

COc1cc(C(=O)O)ccc1OS(=O)(=O)O [3-methoxy-4-(sulfooxy)benzoic acid]
activity at 5 µM [1, 5]: 56 ± 16%

COc1c(O)cc(C(=O)O)cc1OS(=O)(=O)O [4-O-methyl gallic acid-3-sulfate]
TNFα release (Fold-change relative to LPS) [1, 5]: 0.50 ± 0.07 Fold-change relative to LPS

O=S(=O)(O)Oc1cc(O)cc(O)c1 [Phloroglucinol-sulfate, 3,5-dihydroxyphenyl hydrogen sulfate]
release of TNF-α (FIG. 1) [1, 6]: reduction in release of TNF-α
activity at 5 µM [1, 5]: 57 ± 6%
attenuation of TNFα release at lower concentrations [1]: capability to attenuate TNFα release at lower concentrations
multiple cytokines (G-CSF, TNF-α, IL-6, IL-10, IL-1β, CCL17, IL-12p40, TGFβ1, CCL22, IL18, CXCL1) (FIG. 2) [2]: reduction in multiple cytokines
ATP levels (FIG. 5B) [3]: protective effects
cell viability (metabolic capacity) (FIG. 5A) [3]: protective effects
multiple cytokines (TNF-α, CCL22, IL-10, CCL17, IL-1β, CXCL1, G-CSF, IL-6, IL-18, TGFβ1, IL23, IL-12p40, IL-12p70) (FIG. 3) [4]: reduction in multiple cytokines

O=S(=O)(O)Oc1cccc(O)c1 [Resorcinol-sulfate, 3-hydroxyphenyl hydrogen sulfate]
release of TNF-α (FIG. 1) [1, 6]: reduction in release of TNF-α
activity at 5 µM [1, 5]: 58 ± 13%
attenuation of TNFα release at lower concentrations [1]: capability to attenuate TNFα release at lower concentrations
multiple cytokines (G-CSF, TNF-α, IL-6, IL-10, IL-1β, CCL17, IL-12p40, TGFβ1, CCL22, IL18, CXCL1) (FIG. 2) [2]: reduction in multiple cytokines
ATP levels (FIG. 5B) [3]: protective effects
cell viability (metabolic capacity) (FIG. 5A) [3]: protective effects
multiple cytokines (TNF-α, CCL22, IL-10, CCL17, IL-1β, CXCL1, G-CSF, IL-6, IL-18, TGFβ1, IL23, IL-12p40, IL-12p70) (FIG. 3) [4]: reduction in multiple cytokines
